Laboratory results as given in patent publication US20060127890A1, “Novel gene overexpressed in heart and skeletal muscle and use thereof” (priority 2000, published 2006).

Tested on: rat 187-2 gene
Assay: Expression analysis of the rat 187-2 gene in H9c2 cells by TaqMan PCR upon norepinephrine stimulation
Type: cell-based
Conditions: serum-free DMEM, norepinephrine 10 nM or 100 nM, after 4 and 8 hours, corrected on G3PDH, versus absence of norepinephrine
Description: H9c2 cells are a cell strain derived from rat myocardial cells, and were purchased from ATCC. The cells were cultured in DMEM medium containing 10% bovine serum, and the cells were recovered using trypsin, inoculated at a density of 100000 cells/well of a 12-well plate and cultured for 12 hours in DMEM medium containing 10% bovine serum. Thereafter, the medium was exchanged with serum-free DMEM, and 10 nM norepinephrine was added at a concentration of 10 nM or 100 nM to the medium, and after 4 and 8 hours, the amount of the rat 187-2 gene expressed was quantified by TaqMan PCR.

In the case of NC[C@H](O)c1ccc(O)c(O)c1 [norepinephrine], the “amount of the rat 187-2 gene expressed (maximum level)” value is reported as “about twice that in the absence of norepinephrine”.
